Like-named read-outs stand apart in the source and are kept apart here.
Columns and labels:
[1] = system: HCV genotype 1a (H77 strain) replicon in HUH-7 cells; assay: HCV replicon luciferase reporter assay, genotype 1a; assay type: cell-based; details: Hepatitis C virus, Huh-7, 72 h, 3 days incubation, read-out: LE_1a (EC50, range)
Method in brief: (§1)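 Replicon inhibition for both genotypes was measured as Renilla luciferase signal (EnduRen, 7.5 μM final, 2 h) after 3-day, 37° C exposure of replicon-bearing HUH-7 cells in 4% FCS DMEM, 0.5% DMSO. The 1b construct carries S1179I; the 1a H77 construct carries P1496L and S2204I. Twenty-point, 3-fold dilutions were fitted four-parametrically for EC50, and CC50 was taken from multiplexed Cell Titer-Blue.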

[2] = system: HCV genotype 1b (Con1) replicon in HUH-7 cells; assay: HCV replicon luciferase reporter assay, genotype 1b; assay type: cell-based; details: Hepatitis C virus, Huh-7, 72 h, 3 days incubation, read-out: LE_1b (EC50, range)
Method in brief: as §1

[3] = HCV genotype 1a replicon luciferase
[4] = HCV genotype 1b replicon luciferase
[5] = HCV genotype 1a replicon luciferase assay, range class
[6] = HCV genotype 1b replicon luciferase assay, range class

Compound	EC50 [1, 3]	EC50 [2, 4]	EC50 [1, 5]	EC50 [2, 6]	further results
COc1ccc2c(O[C@@H]3C[C@H]4C(=O)N[C@]5(C(=O)NS(=O)(=O)C6CC6)C[C@H]5/C=C\CC[C@H](C)C[C@@H](C)[C@H](NC(=O)OC(C)(C)C(F)(F)F)C(=O)N4C3)nc(-c3ccccc3)cc2c1 [Compound 5191, 1,1,1-trifluoro-2-methylpropan-2-yl((2R,6S,7R,9S,13aS,14aR,16aS,Z)-14a-((cyclopropylsulfonyl)carbamoyl)-2-((6-methoxy-3-phenylisoquinolin-1-yl)oxy)-7,9-dimethyl-5,16-dioxo-1,2,3,5,6,7,8,9,10,11,13a,14,14a,15,16,16a-hexadecahydrocyclopropa[e]pyrrolo[1,2-a][1,4]diazacyclopentadecin-6-yl)carbamate]	< 5.46 nM	< 5.46 nM			
CCOc1cnc(O[C@@H]2C[C@H]3C(=O)N[C@]4(C(=O)NS(=O)(=O)C5CC5)C[C@H]4/C=C\CC[C@@H](C)C[C@@H](C)[C@H](NC(=O)OC(C)(C)C)C(=O)N3C2)c2cc(F)ccc12 [Compound 4061, tert-butyl (2R,6S,7R,9R,13aS,14aR,16aS,Z)-14a-(cyclopropylsulfonylcarbamoyl)-2-(4-ethoxy-7-fluoroisoquinolin-1-yloxy)-7,9-dimethyl-5,16-dioxo-1,2,3,5,6,7,8,9,10,11,13a,14,14a,15,16,16a-hexadecahydrocyclopropa[e]pyrrolo[1,2-a][1,4]diazacyclopentadecin-6-ylcarbamate]	< 5.46 nM	< 5.46 nM			
COc1cccc2c(O[C@@H]3C[C@H]4C(=O)N[C@]5(C(=O)NS(=O)(=O)C6(CF)CC6)C[C@H]5/C=C\CC[C@@H](C)C[C@@H](C)[C@H](NC(=O)OC(C)(C)C)C(=O)N4C3)nccc12 [Compound 3039, tert-butyl ((2R,6S,7R,9R,13aS,14aR,16aS,Z)-14a-(((1-(fluoromethyl)cyclopropyl)sulfonyl)carbamoyl)-2-((5-methoxyisoquinolin-1-yl)oxy)-7,9-dimethyl-5,16-dioxo-1,2,3,5,6,7,8,9,10,11,13a,14,14a,15,16,16a-hexadecahydrocyclopropa[e]pyrrolo[1,2-a][1,4]diazacyclopentadecin-6-yl)carbamate]			< 5.46 nM	< 5.46 nM	
CC[C@@H]1C[C@H](C)CC/C=C\[C@@H]2C[C@@]2(C(=O)NS(=O)(=O)C2(C)CC2)NC(=O)[C@@H]2C[C@@H](Oc3ncc(OC)c4cc(N(C)C)ccc34)CN2C(=O)[C@H]1NC(=O)OC(C)(C)C(F)(F)F [Compound 3208, 1,1,1-trifluoro-2-methylpropan-2-yl((2R,6S,7R,9R,13aS,14aR,16aS,Z)-2-((6-(dimethylamino)-4-methoxyisoquinolin-1-yl)oxy)-7-ethyl-9-methyl-14a-(((1-methylcyclopropyl)sulfonyl)carbamoyl)-5,16-dioxo-1,2,3,5,6,7,8,9,10,11,13a,14,14a,15,16,16a-hexadecahydrocyclopropa[e]pyrrolo[1,2-a][1,4]diazacyclopentadecin-6-yl)carbamate]	1.01 to 5 nM	0.51 to 1 nM			
CCOc1ccc2c(O[C@@H]3C[C@H]4C(=O)N[C@]5(C(=O)NS(=O)(=O)C6(C)CC6)C[C@H]5/C=C\CC[C@H](C)C[C@@H](C)[C@H](NC(=O)OCC5(C)CC5)C(=O)N4C3)nccc2c1 [Compound 5139, (1-methylcyclopropyl)methyl ((2R,6S,7R,9S,13aS,14aR,16aS,Z)-2-((6-ethoxyisoquinolin-1-yl)oxy)-7,9-dimethyl-14a-(((1-methylcyclopropyl)sulfonyl)carbamoyl)-5,16-dioxo-1,2,3,5,6,7,8,9,10,11,13a,14,14a,15,16,16a-hexadecahydrocyclopropa[e]pyrrolo[1,2-a][1,4]diazacyclopentadecin-6-yl)carbamate]	4.82 to 103 nM	< 5.46 nM			
COc1ccc2c(O[C@@H]3C[C@H]4C(=O)N[C@]5(C(=O)NS(=O)(=O)C6CC6)C[C@H]5/C=C\CC[C@@H](C)C[C@@H](C)[C@H](NC(=O)O[C@H](C)C(F)(F)F)C(=O)N4C3)nc(N(C)C)cc2c1 [Compound 3134, (R)-1,1,1-trifluoropropan-2-yl ((2R,6S,7R,9R,13aS,14aR,16aS,Z)-14a-((cyclopropylsulfonyl)carbamoyl)-2-((3-(dimethylamino)-6-methoxyisoquinolin-1-yl)oxy)-7,9-dimethyl-5,16-dioxo-1,2,3,5,6,7,8,9,10,11,13a,14,14a,15,16,16a-hexadecahydrocyclopropa[e]pyrrolo[1,2-a][1,4]diazacyclopentadecin-6-yl)carbamate]			< 5.46 nM	< 5.46 nM	
COc1ccc2c(O[C@@H]3C[C@H]4C(=O)N[C@]5(C(=O)NS(=O)(=O)C6CC6)C[C@H]5/C=C\CC[C@@H](C)C[C@@H](C)[C@H](NC(=O)OC(C)(C)C)C(=O)N4C3)nc(-c3ccc(OC(C)C)cc3)cc2c1 [Compound 4026, tert-butyl (2R,6S,7R,9R,13aS,14aR,16aS,Z)-14a-(cyclopropylsulfonylcarbamoyl)-2-(3-(4-isopropoxyphenyl)-6-methoxyisoquinolin-1-yloxy)-7,9-dimethyl-5,16-dioxo-1,2,3,5,6,7,8,9,10,11,13a,14,14a,15,16,16a-hexadecahydrocyclopropa[e]pyrrolo[1,2-a][1,4]diazacyclopentadecin-6-ylcarbamate]	< 5.46 nM	< 5.46 nM			
CC[C@@H]1C[C@H](C)CC/C=C\[C@@H]2C[C@@]2(C(=O)NS(=O)(=O)C2(C)CC2)NC(=O)[C@@H]2C[C@@H](Oc3ncc(OC)c4cc(N(C)C)ccc34)CN2C(=O)[C@H]1NC(=O)OC(C)(C)C [Compound 3206, tert-butyl ((2R,6S,7R,9R,13aS,14aR,16aS,Z)-2-((6-(dimethylamino)-4-methoxyisoquinolin-1-yl)oxy)-7-ethyl-9-methyl-14a-(((1-methylcyclopropyl)sulfonyl)carbamoyl)-5,16-dioxo-1,2,3,5,6,7,8,9,10,11,13a,14,14a,15,16,16a-hexadecahydrocyclopropa[e]pyrrolo[1,2-a][1,4]diazacyclopentadecin-6-yl)carbamate]	1.01 to 5 nM	1.01 to 5 nM			
COc1ccc2c(O[C@@H]3C[C@H]4C(=O)N[C@]5(C(=O)NS(=O)(=O)C6CC6)C[C@H]5/C=C\CC[C@H](C)C[C@@H](C)[C@H](NC(=O)O[C@@H]5C[C@@H]6C[C@@H]6C5)C(=O)N4C3)nc(-c3ccc(F)cc3)cc2c1 [Compound 3045, (1R,3r,5S)-bicyclo[3.1.0]hexan-3-yl((2R,6S,7R,9S,13aS,14aR,16aS,Z)-14a-((cyclopropylsulfonyl)carbamoyl)-2-((3-(4-fluorophenyl)-6-methoxyisoquinolin-1-yl)oxy)-7,9-dimethyl-5,16-dioxo-1,2,3,5,6,7,8,9,10,11,13a,14,14a,15,16,16a-hexadecahydrocyclopropa[e]pyrrolo[1,2-a][1,4]diazacyclopentadecin-6-yl)carbamate]			< 5.46 nM	< 5.46 nM	
CC[C@@H]1C[C@H](C)CC/C=C\[C@@H]2C[C@@]2(C(=O)NS(=O)(=O)C2(C)CC2)NC(=O)[C@@H]2C[C@@H](Oc3nc(OC)cc4cc(OC)ccc34)CN2C(=O)[C@H]1NC(=O)OC1(C(F)(F)F)COC1 [Compound 1122, 3-(trifluoromethyl)oxetan-3-yl ((2R,6S,7R,9R,13aS,14aR,16aS,Z)-2-((3,6-dimethoxyisoquinolin-1-yl)oxy)-7-ethyl-9-methyl-14a-(((1-methylcyclopropyl)sulfonyl)carbamoyl)-5,16-dioxo-1,2,3,5,6,7,8,9,10,11,13a,14,14a,15,16,16a-hexadecahydrocyclopropa[e]pyrrolo[1,2-a][1,4]diazacyclopentadecin-6-yl)carbamate]			< 5.46 nM	< 5.46 nM	
C[C@@H]1CC/C=C\[C@@H]2C[C@@]2(C(=O)NS(=O)(=O)C2CC2)NC(=O)[C@@H]2C[C@@H](Oc3ncc(OCC(F)F)c4ccccc34)CN2C(=O)[C@@H](NC(=O)O[C@H](C)C(F)(F)F)[C@H](C)C1 [Compound 1034, (R)-1,1,1-trifluoropropan-2-yl((2R,6S,7R,9R,13aS,14aR,16aS,Z)-14a-((cyclopropylsulfonyl)carbamoyl)-2-((4-(2,2-difluoroethoxyl)isoquinolin-1-yl)oxy)-7,9-dimethyl-5,16-dioxo-1,2,3,5,6,7,8,9,10,11,13a,14,14a,15,16,16a-hexadecahydrocyclopropa[e]pyrrolo[1,2-a][1,4]diazacyclopentadecin-6-yl)carbamate]			< 5.46 nM	< 5.46 nM	
C[C@@H]1CC/C=C\[C@@H]2C[C@@]2(C(=O)NS(=O)(=O)C2(C)CC2)NC(=O)[C@@H]2C[C@@H](Oc3ncc(OC(=O)OC(C)(C)C(F)(F)F)c4ccccc34)CN2C(=O)[C@@H](NC(=O)OC(C)(C)C(F)(F)F)[C@H](C)C1 [Compound 4133]					EC50 ([1]; GETYPE1A, HCV genotype 1a replicon luciferase): 4.82 to 103 nM; EC50 ([2]; GETYPE1B, HCV genotype 1b replicon luciferase): < 5.46 nM
C[C@@H]1CC/C=C\[C@@H]2C[C@@]2(C(=O)NS(=O)(=O)C2(C)CC2)NC(=O)[C@@H]2C[C@@H](Oc3nc(OCC(F)F)cc4c(Cl)cccc34)CN2C(=O)[C@@H](NC(=O)OC(C)(C)C)[C@H](C)C1 [Compound 1074, tert-butyl ((2R,6S,7R,9R,13aS,14aR,16aS,Z)-2-((5-chloro-3-(2,2-difluoroethoxyl)isoquinolin-1-yl)oxy)-7,9-dimethyl-14a-(((1-methylcyclopropyl)sulfonyl)carbamoyl)-5,16-dioxo-1,2,3,5,6,7,8,9,10,11,13a,14,14a,15,16,16a-hexadecahydrocyclopropa[e]pyrrolo[1,2-a][1,4]diazacyclopentadecin-6-yl)carbamate]			< 5.46 nM	< 5.46 nM	

— patent US9499550B2 (BRISTOL-MYERS SQUIBB COMPANY, priority 2012, dated 2016)
